Measurements taken from article PMC8354230 (Journal of Virology, 2021).
Where two headings read alike, the source gives them in different places.

Legend:
[1] = test system: 293FT/ACE2/TMPRSS2/DSP1-7 cells; conditions: 2 days; for concentration above which cytotoxicity was exhibited / CC50: WST-8; for CC50: 293FT/ACE2/TMPRSS2/DSP1-7 cells; for cell viability: at concentrations above 40 µM
[2] = test system: SARS-CoV-2 S protein-mediated cell-cell fusion; experiment: microbe, parasite or virus in culture; format: cell-based
[3] = in vitro; conditions: human
[4] = test system: 293FT/ACE2/TMPRSS2/DSP1-7 cells; experiment: Quantification of sphingolipids by LC-MS/MS in 293FT/ACE2/TMPRSS2/DSP1-7 cells; format: cell-based; conditions: for reduction in total sphingolipid levels: 40 µM, vs DMSO
[5] = test system: VeroE6^TMPRSS2 cells; experiment: WST-8 cytotoxicity assay in VeroE6^TMPRSS2 cells; format: cell-based; conditions: 3 days; for concentration above which cytotoxicity was exhibited: WST-8
[6] = test system: SARS-CoV-2 NCGM-05-2N strain; experiment: microbe, parasite or virus in culture; format: cell-based
[7] = test system: VeroE6^TMPRSS2 cells; experiment: Quantification of sphingolipids by LC-MS/MS in VeroE6^TMPRSS2 cells; format: cell-based; conditions: 3 days
[8] = test system: HEK293FT cells expressing DSP1-7 and DSP8-11; format: cell-based; conditions: 2 days treatment
[9] = test system: ACE2; experiment: Cell surface expression of ACE2 by flow cytometry; format: cell-based; conditions: 293FT/ACE2/TMPRSS2/DSP1-7 cells, 5 µM, compared with DMSO or 10 µM GT11
[10] = test system: ACE2; format: cell-based; conditions: 5 µM 4-HPR vs DMSO
[11] = test system: 293FT/ACE2/TMPRSS2/DSP1-7 cells; experiment: Cellular membrane fluidity with lipophilic pyrene probe; format: cell-based; conditions: for decrease in membrane fluidity: 2 days, compared with DMSO
[12] = cited from earlier work
[13] = Severe acute respiratory syndrome coronavirus 2, 48 h

**Q.** What does the source list for `CCCCCCCCc1ccc(CCC(N)(CO)CO)cc1` [FTY720]?
**A.** concentration above which cytotoxicity was exhibited [1]: above 10 µM; antimembrane fusion activity [2]: little or no antimembrane fusion activity; EC50 [2, 13]: > 5 µM; CC50 [3]: 12.5 µM

**Q.** With `CCCCCCCCCCCCCCCC(=O)NC(CN1CCOCC1)C(O)c1ccccc1` (stereo not drawn) [erythro-PPMP] as the compound, how does the CC50 [1] read?
**A.** The CC50 was 35.8 µM.

**Q.** And the EC50 [2]?
**A.** The EC50 was 9.1 µM.

**Q.** And the “levels of GlcCer” value ([4]; 10 µM, compared to DMSO-treated cells)?
**A.** Its value is “decreased”.

**Q.** What does the source list for `CCCCCCC(=O)CCCCCC/C=C/C[C@@H](O)[C@H](O)[C@@](N)(CO)C(=O)O` [Myriocin]?
**A.** cell viability [1]: unaffected; effect on cell viability ([5]; at a concentration above 20 µM): no effect; antimembrane fusion activity [2]: little or no antimembrane fusion activity; EC50 [2, 13]: > 40 µM; reduction in total sphingolipid levels ([4]; 2 days): approximately 65%; antiviral activity [6]: did not exhibit antiviral activity; CC50 [3]: > 40 µM; reduction in total sphingolipid levels ([7]; vs DMSO): approximately 50%

**Q.** With `CCCCCCCCCCCCC/C=C/[C@@H](O)[C@H](CO)NC(=O)CCCCCCC` [C8-Cer, N-Octanoyl-d-erythro-sphingosine] as the compound, how does the cell-cell fusion efficiencies [2] read?
**A.** Its cell-cell fusion efficiencies is “no significant differences”.

**Q.** What about the “decrease in ratio of saturated sphinganine-based lipids to total sphingolipids” value ([4]; 10 µM C8-Cer with 5 µM 4-HPR, compared to 4-HPR treated cells) of the same compound?
**A.** Its value is “approximately 74%”.

**Q.** Which results are given for `CCCCCCCCCCCCCCCC(=O)NC(CN1CCOCC1)C(O)c1ccccc1` (stereo not drawn) [threo-PPMP, 1-phenyl-2-palmitoylamino-3-morpholino-1-propanol]?
**A.** concentration above which cytotoxicity was exhibited [1]: above 20 µM; concentration above which cytotoxicity was exhibited [5]: above 20 µM; luciferase activity in cells harboring preformed DSP1-7/DSP8-11 reporter complex [8]: not affected; inhibition of DSP activity (cell-cell fusion) [2]: more than 50%; EC50 [2, 13]: 8.7 µM; antiviral activity [6]: did not exhibit antiviral activity; CC50 [3]: 25.6 µM; reduction in total GlcCer levels ([7]; compared to DMSO): approximately 60%

**Q.** What does the source list for `COc1ccc(/C=C/C(=O)c2c(-c3ccccc3)c3ccccc3[nH]c2=O)cc1` [Ceranib-2]?
**A.** CC50 [1]: 26.9 µM; concentration above which cytotoxicity was exhibited [1]: above 2.5 µM; EC50 [2]: > 1.3 µM; antimembrane fusion activity [2]: little or no antimembrane fusion activity

**Q.** For `CCCCCCCCCCCC(=O)N[C@@H](CO)C[C@H](O)c1ccccc1` [HPA12], which CC50 [1] is on record?
**A.** Its CC50 is > 40 µM.

**Q.** And the cell viability [1]?
**A.** The cell viability was “unaffected”.

**Q.** What about the EC50 [2] of the same compound?
**A.** The EC50 was > 40 µM.

**Q.** What about the antimembrane fusion activity [2] of the same compound?
**A.** The antimembrane fusion activity was “little or no antimembrane fusion activity”.

**Q.** Which CC50 [1] does the source give for `Oc1ccc(Nc2nc(-c3ccc(Cl)cc3)cs2)cc1` [SKI-II] here?
**A.** The CC50 was > 40 µM.

**Q.** What about the “concentration above which cytotoxicity was exhibited” value [1] of the same compound?
**A.** Its value is “above 20 µM”.

**Q.** What about the EC50 [2] of the same compound?
**A.** Its EC50 is > 10 µM.

**Q.** What about the antimembrane fusion activity [2] of the same compound?
**A.** Its antimembrane fusion activity is “little or no antimembrane fusion activity”.

**Q.** With `O[C@H]1[C@H](O)[C@@H](O)[C@@H]2O[C@@H]2[C@@H]1O` (racemic) [CBE, conduritol B epoxide] as the compound, how does the cell viability [1] read?
**A.** The cell viability was “unaffected”.

**Q.** And the antimembrane fusion activity [2]?
**A.** Its antimembrane fusion activity is “little or no antimembrane fusion activity”.

**Q.** And the EC50 [2, 13]?
**A.** The EC50 was > 40 µM.

**Q.** And the CC50 [3]?
**A.** Its CC50 is > 40 µM.

**Q.** With `O=C(/C=C/c1ccc(/C=C/C(=O)Nc2ccc(C3=NCCN3)cc2)cc1)Nc1ccc(C2=NCCN2)cc1` [GW4869] as the compound, how does the CC50 [1] read?
**A.** The CC50 was > 40 µM.

**Q.** And the “concentration above which cytotoxicity was exhibited” value [1]?
**A.** The value was “above 20 µM”.

**Q.** And the EC50 [2]?
**A.** The EC50 was > 10 µM.

**Q.** And the antimembrane fusion activity [2]?
**A.** The antimembrane fusion activity was “little or no antimembrane fusion activity”.

**Q.** For `CCCC[C@@H](C)[C@@H](OC(=O)C[C@@H](CC(=O)O)C(=O)O)[C@H](C[C@@H](C)C[C@H](O)CCCC[C@@H](O)C[C@H](O)[C@H](C)N)OC(=O)C[C@@H](CC(=O)O)C(=O)O` [Fumonisin B1], which CC50 [1] is on record?
**A.** The CC50 was > 40 µM.

**Q.** What about the cell viability [1] of the same compound?
**A.** The cell viability was “unaffected”.

**Q.** What about the EC50 [2] of the same compound?
**A.** Its EC50 is > 40 µM.

**Q.** What about the antimembrane fusion activity [2] of the same compound?
**A.** Its antimembrane fusion activity is “little or no antimembrane fusion activity”.

**Q.** What about the “reduction in total sphingolipid levels” value ([4]; 2 days) of the same compound?
**A.** Its value is ~79%.

**Q.** With `CC1=C(/C=C/C(C)=C/C=C/C(C)=C/C(=O)Nc2ccc(O)cc2)C(C)(C)CCC1` [4-HPR, N-(4-Hydroxyphenyl) retinamide] as the compound, how does the “ACE2 expression levels on cell surface” value [9] read?
**A.** Its value is “No significant differences”.

**Q.** What about the “ACE2 localization in the membrane microdomain” value [10] of the same compound?
**A.** The value was “no dramatic difference”.

**Q.** And the “decrease in membrane fluidity” value ([11]; 2.5 µM)?
**A.** Its value is ~20%.

**Q.** And the “decrease in membrane fluidity” value ([11]; 5 µM)?
**A.** Its value is “about 50%”.

**Q.** What about the “concentration above which cytotoxicity was exhibited” value [1] of the same compound?
**A.** The value was “above 10 µM”.

**Q.** And the “concentration above which cytotoxicity was exhibited” value [5]?
**A.** The value was “above 10 µM”.

**Q.** And the “luciferase activity in cells harboring preformed DSP1-7/DSP8-11 reporter complex” value [8]?
**A.** Its value is “not affected”.

**Q.** And the “inhibition of DSP activity (cell-cell fusion)” value [2]?
**A.** Its value is “more than 50%”.

**Q.** And the EC50 [2, 13]?
**A.** The EC50 was 4.1 µM.

**Q.** What about the “ratio of saturated sphinganine-based lipids to total sphingolipids” value ([4]; 2.5 µM 4-HPR, 2 days) of the same compound?
**A.** Its value is ~10%.

**Q.** And the “ratio of saturated sphinganine-based lipids to total sphingolipids” value ([4]; 5 µM 4-HPR, 2 days)?
**A.** The value was ~20%.

**Q.** And the antiviral activity [6]?
**A.** Its antiviral activity is “no antiviral activity”.

**Q.** And the EC50 ([6]; Severe acute respiratory syndrome coronavirus 2, VeroE6/TMPRSS2)?
**A.** The EC50 was 4.4 µM.

**Q.** And the CC50 [3]?
**A.** Its CC50 is 11.5 µM.

**Q.** And the “ratio of saturated sphinganine-based lipids to total sphingolipids” value ([7]; 1.3 µM)?
**A.** Its value is 12%.

**Q.** And the “ratio of saturated sphinganine-based lipids to total sphingolipids” value ([7]; 2.5 µM)?
**A.** The value was 17%.

**Q.** What about the “ratio of saturated sphinganine-based lipids to total sphingolipids” value ([7]; 5 µM) of the same compound?
**A.** The value was 25%.

**Q.** What about the “toxicity profile in clinical trials and long-term treatments” value [12] of the same compound?
**A.** The value was “low-toxicity profile”.

**Q.** And the “day 6 mean peak plasma concentration” value ([12]; oral powder, 1,500 mg/m^2 per day, patients with relapsed/refractory neuroblastoma)?
**A.** The value was 21 µM.

**Q.** Which results are given for `CN(C)CCC=C1c2ccccc2CCc2ccccc21` [Amitriptyline]?
**A.** cell viability [1]: unaffected; antimembrane fusion activity [2]: little or no antimembrane fusion activity; EC50 [2, 13]: > 40 µM; CC50 [3]: > 40 µM

**Q.** Which results are given for `CCCCCCCCCCCCCC1=C([C@H](O)[C@@H](CO)NC(=O)CCCCCCC)C1` [GT11]?
**A.** membrane fluidity ([11]; 10 µM GT11 compared with 2.5 µM 4-HPR): not significantly different; CC50 [1]: 20.3 µM; concentration above which cytotoxicity was exhibited [1]: above 20 µM; concentration above which cytotoxicity was exhibited [5]: above 10 µM; EC50 [2]: > 10 µM; antimembrane fusion activity [2]: little or no antimembrane fusion activity; ratio of saturated sphinganine-based lipids to total sphingolipids ([4]; 10 µM GT11, 2 days): ~10%; antiviral activity [6]: no antiviral activity
